According to patent US8431706B2, “1,2,3,4-tetrahydroqinoline derivative useful for the treatment of diabetes” (Eli Lilly and Company, priority 2011, dated 2013):

Legend:
human GPR40 = human GPR40 (Homo sapiens, UniProt O14842); conditions: maximal response compared to the natural ligand, linoleic acid
Male Balb/c mice = experiment: Intraperitoneal Glucose Tolerance Test (IPGTT); type: in vivo, mouse
Method: To examine the ability of exemplified the compound to activate GPR40 in-vivo resulting in anti-diabetic efficacy, i.e. reduction in plasma glucose levels, a 4-day intraperitoneal glucose tolerance test (ipGTT) study is completed, and the data is shown for the compound tested below.
Male Balb/c (Albino mice) mice (8-9 weeks of age) are single housed, and fed with normal rodent chow diet and water ad libitum. Animals are weighed; randomized by body weight; and their daily body weights are recorded Animals are dosed once per day orally for three days using a formulation carrying methylcellulose and tween-80. On the night before Day 4, animals are fasted overnight. On the morning of Day 4, animals are dosed orally with compound or vehicle alone 60 minutes prior to the glucose tolerance test (glucose 2 g/kg, i.p.). Blood glucose levels are determined from tail bleeds taken at 0, 3, 7, 15, 30, and 60 min after glucose challenge. The blood glucose excursion profile from t=0 to t=60 min is used to integrate an area under the curve (AUC) for each treatment. Percent lowering in glucose is calculated from the AUC data of the compound with respect to the AUC of vehicle group. The test compound is orally administered at 0.3, 1.0, 3.0, 10, or 30 mg/kg, and a positive control (3-[4-(2-methyl-benzyloxy)-phenyl]-hex-4-ynoic acid, see WO2005086661.) is administered at 10 mg/kg. […] Glucose levels are lowered at the 15, 30, and 60 minute time points for the positive control. The ED50 for this compound based on AUCs for glucose lowering is 1.0 mg/kg.

Gal4 PPARδ = target: T1, Gal4 PPARδ (Homo sapiens, UniProt Q03181); experiment: Gal4 PPARδ reporter functional assay in CV1 cells; type: cell-based; conditions: examined up to 10 μM; luciferase reporter; 24 hours
T1 construct: expressed in transfected cells; host or cells: CV1 (African green monkey kidney)
T1 sequence (Q03181 211-439 limits assumed): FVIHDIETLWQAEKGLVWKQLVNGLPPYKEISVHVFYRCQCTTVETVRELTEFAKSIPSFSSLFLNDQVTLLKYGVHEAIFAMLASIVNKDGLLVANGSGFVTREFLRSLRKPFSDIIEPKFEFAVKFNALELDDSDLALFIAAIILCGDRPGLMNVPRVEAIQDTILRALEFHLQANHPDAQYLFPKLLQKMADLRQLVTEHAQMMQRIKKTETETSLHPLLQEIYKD
From the text: Gal4 PPARα, Gal4 PPARδ, and PPARγ reporter functional assays are also used to monitor the selectivity of the exemplified compound. CV1 cells, which are derived from the renal tissue of an African green monkey, are transfected with various receptor and reporter plasmids using Fugene. For the Gal4 PPARα and PPARδ assays, a reporter plasmid containing five tandem copies of the yeast transcription protein Gal4 response element, cloned upstream of a firefly luciferase gene driven by the major late promoter of adenovirus, is transfected together with a Simian Virus 40 (SV40) driven plasmid constitutively expressing a hybrid protein containing the Gal4 DNA binding domain (DBD), and either the PPARα or PPARδ ligand binding. For the PPARγ assay, plasmids encoding PPARγ and RXRα, both driven by a cytomegalovirus (CMV) promoter are transfected together with a plasmid containing luciferase reporter cDNA driven by the TK promoter and a receptor response element (2×PPRE). Cells are transfected in T225 cm^2 cell culture flasks in DMEM media with 5% charcoal-stripped FBS. […] After 24 hours incubation with the compound, cells are lysed and luciferase activity is determined as a measure of receptor activation by luminescence. […] The maximum percent stimulation is determined versus maximum stimulation obtained with 10 μM of an appropriate PPAR agonist reference compound. […]

Sequence of human GPR40 (O14842 whole entry): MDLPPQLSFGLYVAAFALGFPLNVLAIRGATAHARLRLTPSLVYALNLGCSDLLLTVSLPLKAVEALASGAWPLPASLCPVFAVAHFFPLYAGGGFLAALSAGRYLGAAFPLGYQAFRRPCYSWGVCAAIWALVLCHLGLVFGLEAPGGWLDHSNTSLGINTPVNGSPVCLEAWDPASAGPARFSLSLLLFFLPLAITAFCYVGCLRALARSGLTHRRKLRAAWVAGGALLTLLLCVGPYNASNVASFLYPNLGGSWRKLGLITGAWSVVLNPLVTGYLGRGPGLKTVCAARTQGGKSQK

Percent efficacy (human GPR40): 84+/−24% | functional activation of PPARδ (Gal4 PPARδ): No functional activation
Compound: CC#C[C@@H](CC(=O)O)c1ccc(OCc2ccc(CN3CCCc4cccc(OC)c43)s2)cc1 [Example 1, (3S)-3-[4-[[5-[(8-Methoxy-3,4-dihydro-2H-quinolin-1-yl)methyl]-2-thienyl]methoxy]phenyl]hex-4-ynoic acid]
Glucose levels compared to vehicle control, 30 and 60 minute time points (Male Balb/c mice; 1.0, 3.0, 10 and 30 mg/kg oral doses): significantly lowered | Glucose levels compared to vehicle control, 15 minute time point (Male Balb/c mice; 3, 10 and 30 mg/kg oral doses): significantly lowered | ED50 (Male Balb/c mice; Mus musculus, oral, once per day, 4 days, glucose 2 g/kg i.p., AUC t=0 to 60 min, read-out: ED50 based on AUCs for glucose lowering): 1 mg/kg
